Experimental data as given in US9708314B2, “Heterocyclic amide compound” (NISSAN CHEMICAL INDUSTRIES, LTD., priority 2013, dated 2017).

What was measured:
Format in all cases: in vivo
Veronica persica = experiment: Test Example 4: herbicidal effect by application to foliage (diluvial soil, plastic box); conditions: for R: Application herbicide amount 320 g/ha; for R (Veronica persica) herbicidal effect: application to foliage, application herbicide amount 320 g/ha
In short: (§1)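 Seeds sown in sterilized diluvial soil, covered ~1.5 cm, grown 14 days in greenhouse at 25° C. to 30° C. Emulsion formulation diluted in water to set rate (g/ha) and sprayed onto stems and leaves. Effect scored visually 3 weeks later on 0–5 scale (5 = ≥90% herbicidal ratio, 0 = ≤5%).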

Abutilon theophrasti = experiment: as above; conditions: for M: Application herbicide amount 320 g/ha; for M (Abutilon theophrasti) herbicidal effect: application to foliage, application herbicide amount 320 g/ha
In short: as §1

Lolium multiflorum Lam. = experiment: as above; conditions: for K: Application herbicide amount 320 g/ha; for K (Lolium multiflorum Lam.) herbicidal effect: application to foliage, application herbicide amount 320 g/ha
In short: as §1

Galium spurium = experiment: as above; conditions: for Q: Application herbicide amount 320 g/ha; for Q (Galium spurium) herbicidal effect: application to foliage, application herbicide amount 320 g/ha
In short: as §1

Apera spica-venti. = experiment: as above; conditions: for L: Application herbicide amount 320 g/ha; for L (Apera spica-venti.) herbicidal effect: application to foliage, application herbicide amount 320 g/ha
In short: as §1

Alopecurus myosuroides = experiment: as above; conditions: for J: Application herbicide amount 320 g/ha; for J (Alopecurus myosuroides) herbicidal effect: application to foliage, application herbicide amount 320 g/ha
In short: as §1

Setaria viridis = experiment: as above; conditions: for G: Application herbicide amount 320 g/ha; for G (Setaria viridis) herbicidal effect: application to foliage, application herbicide amount 320 g/ha
In short: as §1

[1] = tested on: Echinochloa crus-galli var. crus-galli; experiment: as above; conditions: for H: Application herbicide amount 320 g/ha; for H (Echinochloa crus-galli var. crus-galli) herbicidal effect: application to foliage, application herbicide amount 320 g/ha
In short: as §1

Chenopodium album = experiment: as above; conditions: for O: Application herbicide amount 320 g/ha; for O (Chenopodium album) herbicidal effect: application to foliage, application herbicide amount 320 g/ha
In short: as §1

Digitaria ciliaris = experiment: as above; conditions: for F: Application herbicide amount 320 g/ha; for F (Digitaria ciliaris) herbicidal effect: application to foliage, application herbicide amount 320 g/ha
In short: as §1

Avena fatua = experiment: as above; conditions: for I: Application herbicide amount 320 g/ha; for I (Avena fatua) herbicidal effect: application to foliage, application herbicide amount 320 g/ha
In short: as §1

Leptochloa chinensis = experiment: Test Example 3: herbicidal effect by application to foliage (Wagner pot, water depth 0.1-0.5 cm); conditions: Nineteenth Table, application herbicide amount 320 g/ha; for D (herbicidal effect grade): application to foliage
In short: (§2)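 Scores (0–5) reflect herbicidal ratio three weeks after a foliar spray: 0 is 5% or less, 5 is 90% or more. Plants had grown 14 days in alluvial soil pots in a 25–30 °C greenhouse before treatment with water-diluted emulsion at a set g/ha.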

Cyperus difformis = experiment: as above; conditions: Nineteenth Table, application herbicide amount 320 g/ha; for E (herbicidal effect grade): application to foliage
In short: as §2

[2] = tested on: Echinochloa crus-galli var. crus-galli; experiment: as above; conditions: Nineteenth Table, application herbicide amount 320 g/ha; for H (herbicidal effect grade): application to foliage
In short: as §2

Structure (SMILES) | R (Veronica persica) | M (Abutilon theophrasti) | K (Lolium multiflorum Lam.) | Q (Galium spurium) | L (Apera spica-venti.) | J (Alopecurus myosuroides) | G (Setaria viridis) | H [1] | O (Chenopodium album) | F (Digitaria ciliaris) | I (Avena fatua) | D (herbicidal effect grade) (Leptochloa chinensis) | E (herbicidal effect grade) (Cyperus difformis) | H (herbicidal effect grade) [2] | R (Veronica persica) herbicidal effect (Veronica persica) | M (Abutilon theophrasti) herbicidal effect (Abutilon theophrasti) | K (Lolium multiflorum Lam.) herbicidal effect (Lolium multiflorum Lam.) | Q (Galium spurium) herbicidal effect (Galium spurium) | L (Apera spica-venti.) herbicidal effect (Apera spica-venti.) | J (Alopecurus myosuroides) herbicidal effect (Alopecurus myosuroides) | other results
Cc1nnc(NC(=O)c2ccc(C(F)(F)F)n3c(NC(C)C)nnc23)o1 [1-090] | 5 (Herbicidal ratio of 90% or more (almost completely withered)) | 3 (Herbicidal ratio of 40% or more and less than 70%) | 1 (Herbicidal ratio of 5% or more and less than 20%) | 1 (Herbicidal ratio of 5% or more and less than 20%) | 1 (Herbicidal ratio of 5% or more and less than 20%) | 1 (Herbicidal ratio of 5% or more and less than 20%) | 3 (Herbicidal ratio of 40% or more and less than 70%) | 5 (Herbicidal ratio of 90% or more (almost completely withered)) | 5 (Herbicidal ratio of 90% or more (almost completely withered)) | 5 (Herbicidal ratio of 90% or more (almost completely withered)) | 3 (Herbicidal ratio of 40% or more and less than 70%) | 5 (Herbicidal ratio of 90% or more (almost completely withered)) | 5 (Herbicidal ratio of 90% or more (almost completely withered)) | 5 (Herbicidal ratio of 90% or more (almost completely withered)) |  |  |  |  |  |  | 
C#CCSc1nnc2c(C(=O)Nc3nnc(C)o3)ccc(C(F)(F)F)n12 [1-065] | 3 (Herbicidal ratio of 40% or more and less than 70%) | 3 (Herbicidal ratio of 40% or more and less than 70%) | 0 (Herbicidal ratio of 5% or less (almost no effect)) | 0 (Herbicidal ratio of 5% or less (almost no effect)) | 0 (Herbicidal ratio of 5% or less (almost no effect)) | 0 (Herbicidal ratio of 5% or less (almost no effect)) | 1 (Herbicidal ratio of 5% or more and less than 20%) | 1 (Herbicidal ratio of 5% or more and less than 20%) | 5 (Herbicidal ratio of 90% or more (almost completely withered)) | 4 (Herbicidal ratio of 70% or more and less than 90%) | 1 (Herbicidal ratio of 5% or more and less than 20%) | 1 (Herbicidal ratio of 5% or more and less than 20%) | 3 (Herbicidal ratio of 40% or more and less than 70%) | 3 (Herbicidal ratio of 40% or more and less than 70%) |  |  |  |  |  |  | 
CSCc1nnc2c(C(=O)Nc3nnc(C)o3)ccc(C(F)(F)F)n12 [1-030] |  |  |  |  |  |  |  |  |  |  |  |  |  |  | 4 (Herbicidal ratio of 70% or more and less than 90%) | 5 (Herbicidal ratio of 90% or more (almost completely withered)) | 3 (Herbicidal ratio of 40% or more and less than 70%) | 4 (Herbicidal ratio of 70% or more and less than 90%) | 4 (Herbicidal ratio of 70% or more and less than 90%) | 3 (Herbicidal ratio of 40% or more and less than 70%) | G (Setaria viridis) herbicidal effect (Setaria viridis): 5 (Herbicidal ratio of 90% or more (almost completely withered)); H (Echinochloa crus-galli var. crus-galli) herbicidal effect [1]: 5 (Herbicidal ratio of 90% or more (almost completely withered)); O (Chenopodium album) herbicidal effect (Chenopodium album): 5 (Herbicidal ratio of 90% or more (almost completely withered)); F (Digitaria ciliaris) herbicidal effect (Digitaria ciliaris): 5 (Herbicidal ratio of 90% or more (almost completely withered)); I (Avena fatua) herbicidal effect (Avena fatua): 4 (Herbicidal ratio of 70% or more and less than 90%); D (Leptochloa chinensis) herbicidal ratio grade (Leptochloa chinensis): 5 (Herbicidal ratio of 90% or more (almost completely withered)); E (Cyperus difformis) herbicidal ratio grade (Cyperus difformis): 5 (Herbicidal ratio of 90% or more (almost completely withered)); H (Echinochloa crus-galli var. crus-galli) herbicidal ratio grade [2]: 5 (Herbicidal ratio of 90% or more (almost completely withered))
Cc1nnc(NC(=O)c2ccc(C(F)(F)C(F)(F)F)n3c(C(C)C)nnc23)o1 [1-066] | 4 (Herbicidal ratio of 70% or more and less than 90%) | 3 (Herbicidal ratio of 40% or more and less than 70%) | 0 (Herbicidal ratio of 5% or less (almost no effect)) | 1 (Herbicidal ratio of 5% or more and less than 20%) | 0 (Herbicidal ratio of 5% or less (almost no effect)) | 0 (Herbicidal ratio of 5% or less (almost no effect)) | 1 (Herbicidal ratio of 5% or more and less than 20%) | 4 (Herbicidal ratio of 70% or more and less than 90%) | 5 (Herbicidal ratio of 90% or more (almost completely withered)) | 3 (Herbicidal ratio of 40% or more and less than 70%) | 1 (Herbicidal ratio of 5% or more and less than 20%) | 4 (Herbicidal ratio of 70% or more and less than 90%) | 3 (Herbicidal ratio of 40% or more and less than 70%) | 1 (Herbicidal ratio of 5% or more and less than 20%) |  |  |  |  |  |  | 
CCOCc1nnc2c(C(=O)Nc3nnc(C)o3)ccc(C(F)(F)F)n12 [1-027] |  |  |  |  |  |  |  |  |  |  |  |  |  |  | 5 (Herbicidal ratio of 90% or more (almost completely withered)) | 5 (Herbicidal ratio of 90% or more (almost completely withered)) | 1 (Herbicidal ratio of 5% or more and less than 20%) | 3 (Herbicidal ratio of 40% or more and less than 70%) | 3 (Herbicidal ratio of 40% or more and less than 70%) | 2 (Herbicidal ratio of 20% or more and less than 40%) | G (Setaria viridis) herbicidal effect (Setaria viridis): 4 (Herbicidal ratio of 70% or more and less than 90%); H (Echinochloa crus-galli var. crus-galli) herbicidal effect [1]: 5 (Herbicidal ratio of 90% or more (almost completely withered)); O (Chenopodium album) herbicidal effect (Chenopodium album): 5 (Herbicidal ratio of 90% or more (almost completely withered)); F (Digitaria ciliaris) herbicidal effect (Digitaria ciliaris): 5 (Herbicidal ratio of 90% or more (almost completely withered)); I (Avena fatua) herbicidal effect (Avena fatua): 2 (Herbicidal ratio of 20% or more and less than 40%); D (Leptochloa chinensis) herbicidal ratio grade (Leptochloa chinensis): 5 (Herbicidal ratio of 90% or more (almost completely withered)); E (Cyperus difformis) herbicidal ratio grade (Cyperus difformis): 5 (Herbicidal ratio of 90% or more (almost completely withered)); H (Echinochloa crus-galli var. crus-galli) herbicidal ratio grade [2]: 5 (Herbicidal ratio of 90% or more (almost completely withered))
Cc1nnc(NC(=O)c2ccc(C(F)(F)F)n3c(CS(C)(=O)=O)nnc23)o1 [1-037] |  |  |  |  |  |  |  |  |  |  |  |  |  |  | 5 (Herbicidal ratio of 90% or more (almost completely withered)) | 5 (Herbicidal ratio of 90% or more (almost completely withered)) | 2 (Herbicidal ratio of 20% or more and less than 40%) | 4 (Herbicidal ratio of 70% or more and less than 90%) | 3 (Herbicidal ratio of 40% or more and less than 70%) | 2 (Herbicidal ratio of 20% or more and less than 40%) | G (Setaria viridis) herbicidal effect (Setaria viridis): 4 (Herbicidal ratio of 70% or more and less than 90%); H (Echinochloa crus-galli var. crus-galli) herbicidal effect [1]: 4 (Herbicidal ratio of 70% or more and less than 90%); O (Chenopodium album) herbicidal effect (Chenopodium album): 5 (Herbicidal ratio of 90% or more (almost completely withered)); F (Digitaria ciliaris) herbicidal effect (Digitaria ciliaris): 5 (Herbicidal ratio of 90% or more (almost completely withered)); I (Avena fatua) herbicidal effect (Avena fatua): 3 (Herbicidal ratio of 40% or more and less than 70%); D (Leptochloa chinensis) herbicidal ratio grade (Leptochloa chinensis): 5 (Herbicidal ratio of 90% or more (almost completely withered)); E (Cyperus difformis) herbicidal ratio grade (Cyperus difformis): 5 (Herbicidal ratio of 90% or more (almost completely withered)); H (Echinochloa crus-galli var. crus-galli) herbicidal ratio grade [2]: 5 (Herbicidal ratio of 90% or more (almost completely withered))
